Columns and labels:
Type in all cases: cell-based
[1] = tested on: SDMA (PRMT5 activity) in HAP1 MTAP-deleted cell line; assay: SDMA in-cell western assay, HAP1 MTAP-deleted; details: for IC50 / IC90: SDMA in-cell western, HAP1 MTAP-deleted cells, 24 hours compound incubation; for Hap1 MTAP intact/deleted ratio: ratio of SDMA IC50 in HAP1 MTAP-intact to HAP1 MTAP-deleted cell line
[2] = tested on: HAP1 MTAP-deleted cell line; assay: Viability assay (CellTiter-Glo), HAP1 MTAP-deleted; details: HAP1 MTAP-deleted cells, 7 days
Outline: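 HAP1 MTAP-deleted and MTAP-intact cells seeded, then dosed next day (n=3, 0.2% DMSO) and grown 7 days. Viability by CellTiter-Glo luminescence, expressed as % of DMSO control per cell line.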

[3] = tested on: SDMA (PRMT5 activity) in HAP1 MTAP-intact cell line; assay: SDMA in-cell western assay, HAP1 MTAP-intact; details: SDMA in-cell western, HAP1 MTAP-intact cells, 24 hours compound incubation

| Structure (SMILES) | IC50 ([1]; Homo sapiens) | IC90 ([1]; Homo sapiens) | IC50 ([3]; Homo sapiens, HAP1, 24 h) | IC50 [1] | IC90 [1] | IC50 [3] | Hap1 MTAP intact/deleted ratio [1] | IC50 ([2]; Homo sapiens, 168 h) | IC50 [2] | IC50 ([3]; Homo sapiens) |
| --- | --- | --- | --- | --- | --- | --- | --- | --- | --- | --- |
| COc1ncc(NC(=O)C(=O)N2C[C@@H](C)CC[C@@H]2c2ccc3sc([C@@H](C)CN(C)C)nc3c2)cc1C(N)=O [Compound 14, 2-methoxy-5-[[2-oxo-2-[(2R,5S)-5-methyl-2-[2-[(^1R)-2-(dimethylamino)-1-methyl-ethyl]-1,3-benzothiazol-5-yl]-1-piperidyl]acetyl]amino]pyridine-3-carboxamide] | < 5 nM | < 75 nM | 5 to 50 nM |  |  |  | B (“B” indicates an IC50 ratio greater than or equal to 15 fold but lower than 30 fold) | < 100 nM |  |  |
| CCc1cc(NC(=O)C(=O)N2C[C@@H](C)CC[C@@H]2c2ccc3cn([C@H]4CCOC4)nc3c2)cnc1N (racemic) [Compound 93, N-(6-amino-5-ethyl-3-pyridyl)-2-oxo-2-[rac-(2R,5S)-5-methyl-2-(2-tetrahydrofuran-3-ylindazol-6-yl)-1-piperidyl]acetamide] | 5 to 50 nM | < 75 nM | > 50 nM |  |  |  | A (“A” indicates an IC50 ratio greater than or equal to 30 fold) | < 100 nM |  |  |
| CCc1cc(NC(=O)C(=O)N2C[C@@H](C)CC[C@@H]2c2cccc(OC3CCN(C)CC3)c2)cnc1N [Compound 58, N-(6-amino-5-ethylpyridin-3-yl)-2-((2R,5S)-5-methyl-2-(3-((1-methylpiperidin-4-yl)oxy)phenyl)piperidin-1-yl)-2-oxoacetamide] | < 5 nM | < 75 nM | > 50 nM |  |  |  | A (“A” indicates an IC50 ratio greater than or equal to 30 fold) | < 100 nM |  |  |
| CCc1cc(NC(=O)C(=O)N2C[C@@H](C)CC[C@@H]2c2ccc3sc([C@H]4CCN(C)C[C@@H]4OC)nc3c2)cnc1N (single isomer, unassigned) [Compound 90] | < 5 nM | < 75 nM | > 50 nM |  |  |  | A (“A” indicates an IC50 ratio greater than or equal to 30 fold) | < 100 nM |  |  |
| CCc1cc(NC(=O)C(=O)N2C[C@@H](C)CC[C@@H]2c2ccc3sc(CC(C)N4CCCC4)nc3c2)cnc1N (mixture of isomers) [Compound 116, N-(6-amino-5-ethylpyridin-3-yl)-2-((2R,5S)-5-methyl-2-(2-(2-(pyrrolidin-1-yl)propyl)benzo[d]thiazol-5-yl)piperidin-1-yl)-2-oxoacetamide] | < 5 nM | < 75 nM | > 50 nM |  |  |  | A (“A” indicates an IC50 ratio greater than or equal to 30 fold) | < 100 nM |  |  |
| COc1ncc(NC(=O)C(=O)N2C[C@@H](C)CC[C@@H]2c2ccc3sc(C4(C)CCN(C)CC4)nc3c2)cc1C(N)=O [Compound 122, 5-(2-((2R,5S)-2-(2-(1,4-dimethylpiperidin-4-yl)benzo[d]thiazol-5-yl)-5-methylpiperidin-1-yl)-2-oxoacetamido)-2-methoxynicotinamide] | < 5 nM | < 75 nM |  |  |  |  | A (“A” indicates an IC50 ratio greater than or equal to 30 fold) | < 100 nM |  | > 50 nM |
| COc1ncc(NC(=O)C(=O)N2C[C@@H](C)CC[C@@H]2c2ccc3sc(C4CCN(C)C4(C)C)nc3c2)cc1C(N)=O (mixture of isomers) [Compound 87, 2-methoxy-5-(2-((2R,5S)-5-methyl-2-(2-(rac-(S)-1,2,2-trimethylpyrrolidin-3-yl)benzo[d]thiazol-5-yl)piperidin-1-yl)-2-oxoacetamido)nicotinamide] | < 5 nM | < 75 nM | > 50 nM |  |  |  | A (“A” indicates an IC50 ratio greater than or equal to 30 fold) | < 100 nM |  |  |
| COc1ncc(NC(=O)C(=O)N2C[C@@H](C)CC[C@@H]2c2ccc3sc([C@H]4C[C@@H](N(C)C)C4)nc3c2)cc1C(N)=O (single isomer, unassigned) [Compound 24] | < 5 nM | < 75 nM | > 50 nM |  |  |  | A (“A” indicates an IC50 ratio greater than or equal to 30 fold) | < 100 nM |  |  |
| CCc1cc(NC(=O)C(=O)N2C[C@@H](C)CC[C@@H]2c2ccc3sc(C4CN(C)CC(=O)N4C)nc3c2)cnc1N (mixture of isomers) [Compound 125, N-(6-amino-5-ethylpyridin-3-yl)-2-((2R,5S)-2-(2-(1,4-dimethyl-6-oxopiperazin-2-yl)benzo[d]thiazol-5-yl)-5-methylpiperidin-1-yl)-2-oxoacetamide] | 5 to 50 nM | 75 to 125 nM | > 50 nM |  |  |  | B (“B” indicates an IC50 ratio greater than or equal to 15 fold but lower than 30 fold) | < 100 nM |  |  |

Second part, led by results:

| IC50 ([1]; Homo sapiens) | IC90 ([1]; Homo sapiens) | IC50 ([3]; Homo sapiens, HAP1, 24 h) | IC50 [1] | IC90 [1] | IC50 [3] | Structure (SMILES) | Hap1 MTAP intact/deleted ratio [1] | IC50 ([2]; Homo sapiens, 168 h) | IC50 [2] | IC50 ([3]; Homo sapiens) |
| --- | --- | --- | --- | --- | --- | --- | --- | --- | --- | --- |
| 5 to 50 nM | > 125 nM | > 50 nM |  |  |  | COc1ncc(NC(=O)C(=O)N2C[C@@H](C)CC[C@@H]2c2ccc3sc(C45CC(N(C)C)(C4)C5)nc3c2)cc1C(N)=O [Compound 86] | A (“A” indicates an IC50 ratio greater than or equal to 30 fold) | < 100 nM |  |  |
| < 5 nM | < 75 nM | > 50 nM |  |  |  | COc1ncc(NC(=O)C(=O)N2C[C@@H](C)CC[C@@H]2c2ccc3sc(CC4CCN(C)CC4)nc3c2)cc1C(N)=O [Compound 20, 2-methoxy-5-(2-((2R,5S)-5-methyl-2-(2-((1-methylpiperidin-4-yl)methyl)benzo[d]thiazol-5-yl)piperidin-1-yl)-2-oxoacetamido)nicotinamide] | A (“A” indicates an IC50 ratio greater than or equal to 30 fold) | < 100 nM |  |  |
| 5 to 50 nM | > 125 nM | > 50 nM |  |  |  | CCc1cc(NC(=O)C(=O)N2C[C@@H](C)CC[C@@H]2c2ccc3cccnc3c2)cnc1N [Compound 76, N-(6-amino-5-ethylpyridin-3-yl)-2-((2R,5S)-5-methyl-2-(quinolin-7-yl)piperidin-1-yl)-2-oxoacetamide] | A (“A” indicates an IC50 ratio greater than or equal to 30 fold) | 100 to 1000 nM |  |  |
| < 5 nM | < 75 nM | > 50 nM |  |  |  | COc1ncc(NC(=O)C(=O)N2C[C@@H](C)CC[C@@H]2c2ccc3sc([C@@H]4CCN(C)C[C@H]4OC)nc3c2)cc1C(N)=O (single isomer, unassigned) [Compound 68] | A (“A” indicates an IC50 ratio greater than or equal to 30 fold) | < 100 nM |  |  |
| < 5 nM | < 75 nM | > 50 nM |  |  |  | COc1ncc(NC(=O)C(=O)N2C[C@@H](C)CC[C@@H]2c2ccc3sc([C@H]4CN(C)CC4(C)C)nc3c2)cc1C(N)=O (single isomer, unassigned) [Compound 36] | A (“A” indicates an IC50 ratio greater than or equal to 30 fold) | < 100 nM |  |  |
| 5 to 50 nM | < 75 nM | > 50 nM |  |  |  | CCc1cc(NC(=O)C(=O)N2C[C@@H](C)CC[C@@H]2c2ccc3cn(C4CCOCC4)nc3c2)cnc1N [Compound 17, N-(6-amino-5-ethyl-3-pyridyl)-2-oxo-2-[(2R,5S)-5-methyl-2-(2-tetrahydropyran-4-ylindazol-6-yl)-1-piperidyl]acetamide] | A (“A” indicates an IC50 ratio greater than or equal to 30 fold) | < 100 nM |  |  |
|  |  |  | < 5 nM | < 75 nM | 5 to 50 nM | C[C@H]1CC[C@H](c2ccc3sc(C4CCN(C)C(C)(C)C4)nc3c2)N(C(=O)C(=O)Nc2cnc(N)c(C3COC3)c2)C1 (single isomer, unassigned) [Compound 1] | C (“C” indicates an IC50 ratio of less than 15 fold) |  | < 100 nM |  |
| 5 to 50 nM | 75 to 125 nM | > 50 nM |  |  |  | COc1ncc(NC(=O)C(=O)N2C[C@@H](C)CC[C@@H]2c2cccc(OC[C@H](C)N(C)C)c2)cc1C(N)=O [Compound 37, 5-(2-((2R,5S)-2-(3-((S)-2-(dimethylamino)propoxy)phenyl)-5-methylpiperidin-1-yl)-2-oxoacetamido)-2-methoxynicotinamide] | A (“A” indicates an IC50 ratio greater than or equal to 30 fold) | < 100 nM |  |  |
| < 5 nM | < 75 nM | > 50 nM |  |  |  | CCc1cc(NC(=O)C(=O)N2C[C@@H](C)CC[C@@H]2c2ccc3sc([C@@H](C)CN4CCCC4)nc3c2)cnc1N [Compound 47] | A (“A” indicates an IC50 ratio greater than or equal to 30 fold) | < 100 nM |  |  |
|  |  |  | < 5 nM | < 75 nM | 5 to 50 nM | CCc1cc(NC(=O)C(=O)N2C[C@@H](C)CC[C@@H]2c2ccc3cn(C4CCN(C)C(C)(C)C4)nc3c2)cnc1N (single isomer, unassigned) [Compound 115] |  |  | < 100 nM |  |
| < 5 nM | < 75 nM | > 50 nM |  |  |  | CCc1cc(NC(=O)C(=O)N2C[C@@H](C)CC[C@@H]2c2ccc3sc([C@@H]4CN(C)CC(C)(C)C4)nc3c2)cnc1N (single isomer, unassigned) [Compound 105] | A (“A” indicates an IC50 ratio greater than or equal to 30 fold) | < 100 nM |  |  |
| 5 to 50 nM | > 125 nM | > 50 nM |  |  |  | COc1ncc(NC(=O)C(=O)N2C[C@@H](C)CC[C@@H]2c2cccc(OC[C@@H]3CCCN3C)c2)cc1C(N)=O [Compound 26, 2-methoxy-5-(2-((2R,5S)-5-methyl-2-(3-(((S)-1-methylpyrrolidin-2-yl)methoxy)phenyl)piperidin-1-yl)-2-oxoacetamido)nicotinamide] | A (“A” indicates an IC50 ratio greater than or equal to 30 fold) | 100 to 1000 nM |  |  |
